Reference: ChEMBL document CHEMBL3301472, “MMV Malaria Box HIV and cytotoxicity screening”

Tests used:
Assay type in all cases: toxicity, cell-based
[1] = MMV: MTT Cytotoxicity Assay Day 7 pi of Assay #6 (compound washed out Day 1 pi), U87-CD4-CCR5 cells, % cell death @ 5mM compound; settings: human, u87-cd4-ccr5, 5000 µM
[2] = MMV: MTT Cytotoxicity Assay Day 3 pi, U87-CD4-CXCR4 cells, % cell death @ 5mM compound; settings: human, u87-cd4-cxcr4, 5000 µM
[3] = MMV: MTT Cytotoxicity Assay Day 7 pi of Assay #7 (compound washed out Day 1 pi), U87-CD4-CXCR4 cells, % cell death @ 5mM compound; settings: human, u87-cd4-cxcr4, 5000 µM
[4] = MMV: MTT Cytotoxicity Assay Day 7 pi of Assay #10 (NO washout), U87-CD4-CCR5 cells, % cell death @ 5mM compound; settings: human, u87-cd4-ccr5, 5000 µM
[5] = MMV: MTT Cytotoxicity Assay Day 3 pi, U87-CD4-CCR5 cells, % cell death @ 5mM compound; settings: human, u87-cd4-ccr5, 5000 µM
[6] = MMV: MTT Cytotoxicity Assay Day 7 pi of Assay #11 (NO washout), U87-CD4-CXCR4 cells, % cell death @ 5mM compound; settings: human, u87-cd4-cxcr4, 5000 µM

Structure (SMILES)	% Cell Death [1]	% Cell Death [2]	% Cell Death [3]	% Cell Death [4]	% Cell Death [5]	% Cell Death [6]
OCCNc1nc(Nc2ccc(Cl)c(Cl)c2)nc2ccccc12	-18	30	-3	51	41	-59
O=C(Nc1ccc(N2CCCCC2)c(Cl)c1)c1ccc(Br)o1	26	61	53	76	97	99
COc1cccc(C(=O)NC(c2ccc(C)cc2)c2cc(Cl)c3cccnc3c2O)c1 (stereo not given)	23	68	-4	26	88	-24
O=C(NC1CCN(Cc2ccccc2)CC1)c1cc(-c2ccncc2)nc2ccc(Cl)cc12	-18	31	8	2	13	58
COc1ccc(C)c2sc(N(Cc3cccnc3)C(=O)c3ccc(C#N)cc3)nc12	-1	24	-6	13	-7	-39
CCCc1c(CC)c(=N)c2ccccc2n1C	-10	21	-9	-7	33	-23
Cl.OC(CNCc1ccccc1)Cn1c2ccccc2c2ccccc21 (stereo not given)	10	18	-9	11	19	-23
CCc1ccc(Nc2cc(C)c3ccc(O)cc3n2)cc1.Cl	101	101	95	130	105	102
CC(C)(C)C(=O)Nc1ccc(C(=O)Nc2cccc(-c3nc4ccccc4[nH]3)c2)cc1	18	20	-22	4	17	85
COc1ccc(C2N(C)c3ccccc3N2C)cc1	16	-15	-14	3	-7	30
FC(F)(F)c1cccc(Nc2nc3ccccc3nc2Nc2cccc(C(F)(F)F)c2)c1	15	15	3	25	-15	-12
CN1CCN(c2nc(Nc3ccc(O)cc3)nc3ccccc23)CC1.Cl	-8	32	-23	43	11	110
O=c1cc(NC2CCN(CCCc3ccccc3)CC2)c2cc(Cl)ccc2o1	-6	19	37	31	16	-41
O=C(Nc1ccc(CN2CCOCC2)cc1)c1ccc(-c2ccc(Br)cc2)o1	14	15	-2	96	20	6
CCOc1ccc(/C=C/c2nc(=O)c3ccccc3o2)cc1	27	31	-27	21	41	10
CCCCCCc1cc2cc(-c3csc(C=Cc4ccccc4)n3)c(=O)oc2cc1O	-23	41	-39	24	35	-36
COc1ccc(CNC(=O)c2cc3c(=O)n4ccccc4nc3n(CCc3ccccc3)c2=N)cc1	-17	37	-14	0	14	49
CN(C)c1ccc(C(O)(c2ccc(N(C)C)cc2)c2ccc(N(C)C)cc2)cc1 [METHYLROSANILINE]	3	98	-2	23	2	71
COc1ccc2c(c1)C1(Nc3ccccc3-c3nc4ccccc4n31)C(=O)N2 (stereo not given)	-9	13	-24	29	-75	9
CC1CN(C(=O)c2sc3ccccc3c2Cl)CC(C)O1 (stereo not given)	7	47	45	124	107	105
